Reference: US6890951B2, “Treatment of addiction and addiction-related behavior” (Brookhaven Science Associates LLC, priority 1998, dated 2005)
“Also recorded” adds a separate entry of the source. Read-outs that look alike come from different tables or passages of the source.

What was measured:
[1] = system: synaptic DA ([11C]-raclopride binding, corpus striatum); test: Primate PET: [11C]-raclopride DV ratio after cocaine challenge; type: in vivo, baboons (Papio anubis); conditions: Group 2: cocaine hydrochloride 0.5, 1.0 or 2.0 mg/kg, 5 or 30 minutes prior to second [11C]-raclopride injection
Description: Arterial blood samples were obtained throughout the study and selected plasma samples were analyzed for the presence of unchanged radio tracer carbon-11. Animals were not removed from the gantry between isotope injections. Regions of interest (ROI's) were drawn directly on the PET images. Briefly, the corpus striatum was outlined, bilaterally, on every transaxial slice upon which it appeared. The cerebellar ROI was drawn across the midline at the level of the cerebellar vermis. ROI's from the first study were then copied directly onto the corresponding slice from the second. By examining placement of the ROI's on the second scan changes could be made, if necessary, in ROI position only. This multi planar method of analysis reduced differences that may arise due to movement of the animal within the gantry during the scanning interval.
A graphical method for determining the distribution volume (DV) was developed previously for the kinetic analysis of the [^11C]-raclopride data. The DV ratio was the most reproducible measure of raclopride uptake. The ratio is the DV from a receptor-rich region (corpus striatum) to the DV of a non-receptor region (cerebellum). The free receptor concentration was directly proportional to the DV ratio of 1. […]

male Sprague-Dawley rats = type: in vivo
Excerpt: In all rodent studies, male Sprague-Dawley rats were used (200-225 g, Taconic farms, Germantown, N.Y.). Animals were allowed to acclimate to the animal housing facility for at least 5 days prior to beginning the experiments. […] The conditioning procedure for the acquisition phase consisted of 12 sessions carried out consecutively over 12 days.
The animals in each group were randomly assigned to a 2×2 factorial design with one factor being the pairing chamber and the other factor being the order of conditioning. The animals that received either saline or cocaine were injected and confined to the appropriate compartment for 30 minutes.
[…] The amount of time spent in each chamber was recorded using an automated infrared beam electronically coupled to a timer.
In this example the procedure outlined in Section 2 of Materials and Methods was followed.

freely moving rats = test: Cocaine-induced stereotypy after a sensitizing regimen of cocaine; type: in vivo
Description: The phenomenon of sensitization is observed with virtually all drugs of addiction. Sensitization is believed to play a role in the etiology of addiction.
Animals received 15 mg/kg i.p. of cocaine and stereotypy was determined in standard locomotor cages. For 6 consecutive days, animals received 15 mg/kg i.p. of cocaine once a day in their home cages. Eight days later, animals were rechallenged with 15 mg/kg i.p. of cocaine and stereotypy was determined. A five point rating scale was used to assess stereotypy and the rater was blind to the treatment received by each animal.

[2] = system: extracellular DA levels in the NACC; test: Microdialysis: cocaine-induced increases in extracellular DA, earlier studies
NAc DA = test: Microdialysis: cocaine/heroin (speedball) induced increases in NAc DA; type: in vivo, rats; conditions: cocaine 20 mg/kg i.p. or heroin 0.5 mg/kg i.p. alone
Description: In vivo microdialysis studies were performed using adult male Sprague-Dawley rats (Taconic Farms) as detailed previously (Morgan and Dewey, 1998). Cocaine, a dopamine reuptake inhibitor, (n=6-8) was administered (i.p.) at a dose of 20 mg/kg while heroin, an indirect dopamine releaser, (n=6-8) was administered (i.p.) at a dose of 0.5 mg/kg. In studies designed to investigate the synergistic effects of a cocaine/heroin combination (n=6-8), both drugs were administered at the identical dose used in the single drug studies. Alone cocaine produced a marked elevation in extracellular DA of approximately 380% above baseline values, 60 minutes following administration. DA returned to baseline within 120 minutes. In contrast, heroin increased NAc DA by only 70%, 60 minutes following administration, returning to baseline within 140 minutes. However, when combined, the two drugs produced an increase in NAc DA of approximately 1000%, 180 minutes following administration that had not returned to baseline values by 200 minutes after reaching peak values (FIG. 9).

[3] = system: extracellular dopamine in the nucleus accumbens; test: Microdialysis: Topiramate on nicotine-induced increases in nucleus accumbens dopamine (Example 14); type: in vivo, rats; conditions: Rattus norvegicus, ip, 60 mins pretreatment
Description: These studies were performed using the identical experimental technique we have successfully used in more than 5000 microdialysis studies in rats. Adult male Sprague-Dawley rats (200-300 g, Taconic Farms) were anesthetized with ketamine HCl/xylazine (100 mg/kg), and siliconized guide cannulae are stereotactically implanted in the NACC (1.5 mm anterior to bregma, 1 mm lateral to bregma, and 5.6 mm ventral from the cortical surface, Paxinos and Watson, 2nd edition, 1986) two days prior to the microdialysis experiment.
On the day of the microdialysis study, rats are placed in a bowl at least 2 hrs prior to fraction collection. […]
Ten minute samples are collected within the injection loop (50 μl), injected online and analyzed until three sequential injections differ by less than 10 percent. […]
As stated previously, the first three data points that differ by less than 10% are used as the basal levels, and subsequent measurements made following a challenge drug are converted to a percentage of these values. All subsequent analyses are determined using the ‘percentage of basal’ values.
Locomotor activity was monitored throughout the entire period of study using an Optical Animal Activity Monitor (Bioanalytical Systems, West Lafayette, Ind.), which uses an optical sensor and records activity on both a chart recorder and via computer. […]

serotonin (5-HT) = test: Microdialysis Example 15: extracellular serotonin after nicotine; type: in vivo
Description: (§1) Briefly, two days prior to the microdialysis experiments, siliconized guide cannulae were implanted targeting the NAcc (A=+1.5 mm, L=−1.0 mm, V=−5.6 mm). […] Dialysate samples were assayed for monoamine content by microbore high-pressure liquid chromatography (HPLC) coupled with electrochemical detection. […] Peak effects were analyzed with a one-way ANOVA, and post-hoc Bonferroni t-test of topiramate pretreated groups compared to saline pretreated controls provided ANOVA significance at a critical value of 0.05.

[4] = system: mesolimbic extracellular dopamine (DA), NAcc; test: Microdialysis Example 15: extracellular dopamine after nicotine; type: in vivo
Description: as §1

Sprague-Dawley rats = test: Gross locomotor activity (Optical Animal Activity Monitor); type: in vivo; conditions: for nicotine-induced increases in gross locomotor activity: topiramate 25 and 50 mg/kg
Excerpt: Locomotor activity was monitored throughout the entire period of study using an Optical Animal Activity Monitor (Bioanalytical Systems, West Lafayette, Ind.), which uses an optical sensor and records activity on both a chart recorder and via computer.
Locomotor data was collected with the Optical Animal Activity Monitor (OAAM, BAS, West Lafayette, Ind.). This system is attached to the microdialysis “Raturn®” machines and measures locomotor activity through an optical sensor attached directly to the animal. Output from the Raturn® gives a direct index of locomotor activity.

[5] = system: extracellular dopamine in the nucleus accumbens; test: Microdialysis: Topiramate on cocaine-induced increases in nucleus accumbens dopamine; type: in vivo, rats; conditions: Topiramate 40 mg/kg i.p. 60 minutes prior to cocaine challenge
Description: In this example, we examined the effects of Topiramate sixty minutes prior to a cocaine challenge. The Topiramate was administered as an intraperitoneal injection, of 40 mg/kg, 60 minutes prior to a cocaine challenge.

norepinephrine (NE) = test: Microdialysis Example 15: extracellular norepinephrine after nicotine; type: in vivo
Description: as §1

[6] = acquisition, Saline/Cocaine pairing, cocaine 20 mg/kg (Table IV)
[7] = acquisition, Saline/Cocaine pairing, cocaine 20 mg/kg (Table V)
[8] = acquisition, Saline/Cocaine pairing, cocaine 20 mg/kg (Table VI)
[9] = expression, Saline/Cocaine pairings, saline on test day (Table IX)
[10] = expression, Saline/Cocaine pairings, saline on test day (Table VII)
[11] = expression, Saline/Cocaine pairings, saline on test day (Table VIII)
[12] = expression, Saline/Cocaine pairings, saline on test day (Table X)

COC(=O)[C@H]1[C@@H](OC(=O)c2ccccc2)C[C@@H]2CC[C@H]1N2C [Cocaine]
reduction in the mean DV ratio [1]: greater than 30% | Time spent in chambers, Unpaired (male Sprague-Dawley rats; acquisition, Saline/Cocaine pairing, cocaine 20 mg/kg (Table III)): 3.9 ± 0.4 min | Time spent in chambers, Paired (male Sprague-Dawley rats; acquisition, Saline/Cocaine pairing, cocaine 20 mg/kg (Table III, 75 mg/kg GVG experiment)): 11.1 ± 0.3^4 min | Time spent in chambers, Paired (male Sprague-Dawley rats; [6]): 11.8 ± 0.5^4 mins | Time spent in chambers, Unpaired (male Sprague-Dawley rats; [6]): 3.2 ± 0.5 min | Time spent in chambers, Paired (male Sprague-Dawley rats; [7]): 11.6 ± 0.5^4 min | Time spent in chambers, Unpaired (male Sprague-Dawley rats; [7]): 3.4 ± 0.4^5 min | Time spent in chambers, Paired (male Sprague-Dawley rats; [8]): 11.2 ± 0.6^4 mins | Time spent in chambers, Unpaired (male Sprague-Dawley rats; [8]): .8 ± 0.5^5 mins | Time spent in chambers, Paired (male Sprague-Dawley rats; cocaine 5.0 mg/kg i.p.): 8.2 ± 0.4 min | Time spent in chambers, Unpaired (male Sprague-Dawley rats; cocaine 5.0 mg/kg i.p.): 6.8 ± 0.5 min | Time spent in chambers, Paired (male Sprague-Dawley rats; cocaine 10.0 mg/kg i.p.): 9.6 ± 0.5^2 mins | Time spent in chambers, Unpaired (male Sprague-Dawley rats; cocaine 10.0 mg/kg i.p.): 5.4 ± 0.3 min | Time spent in chambers, Paired (male Sprague-Dawley rats; cocaine 20.0 mg/kg i.p.): 11.8 ± 0.4^3 mins | Time spent in chambers, Unpaired (male Sprague-Dawley rats; cocaine 20.0 mg/kg i.p.): 3.2 ± 0.4^4 mins | Time spent in chambers, Paired (male Sprague-Dawley rats; [9]): 11.1 ± 0.5^3 min | Time spent in chambers, Unpaired (male Sprague-Dawley rats; [9]): 3.9 ± 0.4^4 min | Time spent in chambers, Paired (male Sprague-Dawley rats; [10]): 11.8 ± 0.5^3 min | Time spent in chambers, Unpaired (male Sprague-Dawley rats; [10]): 3.2 ± 0.5 min | Time spent in chambers, Paired (male Sprague-Dawley rats; [11]): 12.2 ± 0.6^3 min | Time spent in chambers, Unpaired (male Sprague-Dawley rats; [11]): 2.8 ± 0.5 min | Time spent in chambers, Paired (male Sprague-Dawley rats; [12]): 12.5 ± 0.8^3 min | Time spent in chambers, Unpaired (male Sprague-Dawley rats; [12]): 2.5 ± 0.6^4 min | Stereotypies on Day 15 (freely moving rats; cocaine 15 mg/kg i.p. rechallenge after sensitizing regimen, 1 ml/kg i.p. 0.9% NaCl before): 4.1 ± 0.5 | Stereotypy score on Day 1 (freely moving rats; cocaine 15 mg/kg i.p., group later given 0.9% NaCl, five point rating scale): 2.5 ± 0.4 | increase of NACC DA levels (rank order) [2]: 450% | time for DA to return to baseline (NAc DA): ≤ 120 min

CC1(C)O[C@@H]2[C@@H](CO[C@@]3(COS(N)(=O)=O)OC(C)(C)O[C@@H]23)O1 [Topiramate]
inhibition at 25 mg/kg ([3]; topiramate 25 mg/kg ip): ~50% | inhibition at 50 mg/kg ([3]; topiramate 50 mg/kg ip): ~70% | inhibition of nicotine-induced increases in 5-HT activity (serotonin (5-HT); topiramate 25 or 50 mg/kg): not | increase in basal 5-HT activity (serotonin (5-HT); topiramate alone, non-significant): 20% | reduction of the NAcc DA response to acute nicotine ([4]; topiramate 25 mg/kg): 67% | reduction of the NAcc DA response to acute nicotine ([4]; topiramate 50 mg/kg): 83% | neurochemical sensitization (nicotine-induced NAcc DA release) ([4]; topiramate 75 mg/kg, animals pretreated with nicotine for 14 days): dramatically reduced | extracellular basal DA concentrations ([4]; topiramate alone): did not produce any significant changes | gross locomotor activity, topiramate alone (Sprague-Dawley rats; 25 and 50 mg/kg): did not alter gross locomotor activity; also recorded: did not attenuate gross locomotor activity | nicotine-induced increases in gross locomotor activity (Sprague-Dawley rats): significantly attenuate | nicotine-induced increases in gross locomotor activity (Sprague-Dawley rats; listed as topiramate): markedly attenuated | attenuation of cocaine-induced increases in extracellular dopamine [5]: approximately 15% | inhibition at 25 mg/kg (norepinephrine (NE); topiramate 25 mg/kg, read-out: inhibition of nicotine-induced increases in NE activity): 53% | inhibition at 50 mg/kg (norepinephrine (NE); topiramate 50 mg/kg, read-out: inhibition of nicotine-induced increases in NE activity): 60% | extracellular basal NE concentrations (norepinephrine (NE); topiramate alone): did not produce any significant changes
